Test results as given in patent US7129073B2, “Regulation of neuronal function through metabotropic glutamate receptor signaling pathways” (The Rockefeller University, priority 2001, dated 2006).

Tested on: MM2-CK1ε
Experiment: kinase activity of Myc-MM2-CK1ε mutant immunoprecipitated from transfected N2a cells
Assay type: cell-based
Conditions: DHPG 100 μM 2 min, in the absence or presence of cyclosporin A
Experimental: Neuroblastoma N2a cells were cultured to 50–60% confluence in DMEM containing 5% fetal bovine serum. Four μg of the expression plasmid for HA-CK1ε or myc-MM2-CK1ε was transfected into N2a cells in 100 mm dishes using FuGENE6™. Twenty-four hours after transfection, cells were incubated at room temperature in phosphate-buffered Kreb's-Henseleit solution (Sigma) for 10 min and then with or without inhibitors for 30 min before treating with (S)-3,5-DHPG, for 2 min. Cells were then lysed in 1 ml of radio-immunoprecipitation (RIPA) buffer containing 1% NP-40, 150 mM NaCl, 0.1% SDS, 50 mM Tris, pH 8.0, 5 mM Na3VO4, 20 mM NaF, 20 mM β-glycerol-phosphate and protease inhibitors. Lysates were centrifuged at 10,000 g, and supernatants were used for immunoprecipitation and kinase assay.
For immunoprecipitation of CK1ε from N2a cells, lysates (1 mg of total protein) were precleared with 5 μl of mouse IgG (ICN) and 50 μl of protein A agarose for 30 min. Five μl (approximately 2 μg) of anti-HA or anti-myc antibody was added and samples were incubated for 1 h at 4° C. Five μl of anti-mouse rabbit IgG and 50 μl of protein A agarose were then added for 45 min. […]
CK1 assays were performed in a 30 μl assay volume with 2 μg of purified DARPP-32, 500 μM ATP and 5 μCi γ-^32P-ATP. […] Results were quantified using a Molecular Dynamics PHOSPHORIMAGER™. […]

**Q.** For N[C@H](C(=O)O)c1cc(O)cc(O)c1 [DHPG, (S)-3,5-Dihydroxyphenylglycine], which “effect on MM2-CK1ε activity” value is on record?
**A.** no effect
